Measured values published in the NIST ThermoML archive (doi:10.1016/j.jct.2006.11.003).

Test: xn = mol fraction of the nth substance listed
Conditions: 101 kPa, Liquid

Cc1cccc(C)c1 [1,3-dimethylbenzene] + CN1CCCC1=O
Conditions | mass density [kg/m3]
293.15 K, x1 = 0.0451 | 1024.18
293.15 K, x1 = 0.1145 | 1011.33
293.15 K, x1 = 0.1874 | 998.07
293.15 K, x1 = 0.2451 | 987.76
293.15 K, x1 = 0.3258 | 973.58
293.15 K, x1 = 0.3987 | 961
293.15 K, x1 = 0.4657 | 949.63
293.15 K, x1 = 0.5214 | 940.31
293.15 K, x1 = 0.5985 | 927.59
293.15 K, x1 = 0.6584 | 917.85
293.15 K, x1 = 0.7214 | 907.73
293.15 K, x1 = 0.7987 | 895.48
293.15 K, x1 = 0.8547 | 886.71
293.15 K, x1 = 0.9048 | 878.92
293.15 K, x1 = 0.9597 | 870.47
293.15 K, x1 = 1 | 864.31
303.15 K, x1 = 0.0541 | 1013.3
303.15 K, x1 = 0.1134 | 1002.37
303.15 K, x1 = 0.1954 | 987.52
303.15 K, x1 = 0.2562 | 976.72
303.15 K, x1 = 0.3214 | 965.31
303.15 K, x1 = 0.3895 | 953.58
303.15 K, x1 = 0.4487 | 943.53
303.15 K, x1 = 0.5014 | 934.7
303.15 K, x1 = 0.5782 | 922.02
303.15 K, x1 = 0.6484 | 910.6
303.15 K, x1 = 0.7154 | 899.86
303.15 K, x1 = 0.7654 | 891.93
303.15 K, x1 = 0.8241 | 882.72
303.15 K, x1 = 0.8815 | 873.79
303.15 K, x1 = 0.9465 | 863.8
303.15 K, x1 = 1 | 855.64
313.15 K, x1 = 0.0487 | 1005.18
313.15 K, x1 = 0.1151 | 992.96
313.15 K, x1 = 0.1745 | 982.21
313.15 K, x1 = 0.2495 | 968.86
313.15 K, x1 = 0.3147 | 957.46
313.15 K, x1 = 0.3851 | 945.34
313.15 K, x1 = 0.4587 | 932.89
313.15 K, x1 = 0.5185 | 922.93
313.15 K, x1 = 0.6214 | 906.08
313.15 K, x1 = 0.6785 | 896.89
313.15 K, x1 = 0.7484 | 885.77
313.15 K, x1 = 0.7945 | 878.53
313.15 K, x1 = 0.8521 | 869.55
313.15 K, x1 = 0.9021 | 861.83
313.15 K, x1 = 0.9548 | 853.77
313.15 K, x1 = 1 | 846.9
323.15 K, x1 = 0.0548 | 995.37
323.15 K, x1 = 0.1154 | 984.22
323.15 K, x1 = 0.1754 | 973.34
323.15 K, x1 = 0.2354 | 962.63
323.15 K, x1 = 0.2965 | 951.89
323.15 K, x1 = 0.3551 | 941.73
323.15 K, x1 = 0.4158 | 931.36
323.15 K, x1 = 0.4814 | 920.31
323.15 K, x1 = 0.5385 | 910.84
323.15 K, x1 = 0.5821 | 903.68
323.15 K, x1 = 0.6514 | 892.44
323.15 K, x1 = 0.7085 | 883.3
323.15 K, x1 = 0.7765 | 872.54
323.15 K, x1 = 0.8512 | 860.88
323.15 K, x1 = 0.9374 | 847.61
323.15 K, x1 = 1 | 838.09
333.15 K, x1 = 0.0451 | 987.86
333.15 K, x1 = 0.1102 | 975.88
333.15 K, x1 = 0.1985 | 959.95
333.15 K, x1 = 0.2511 | 950.64
333.15 K, x1 = 0.3201 | 938.59
333.15 K, x1 = 0.3952 | 925.71
333.15 K, x1 = 0.4625 | 914.36
333.15 K, x1 = 0.5214 | 904.57
333.15 K, x1 = 0.5985 | 891.95
333.15 K, x1 = 0.6584 | 882.28
333.15 K, x1 = 0.7121 | 873.71
333.15 K, x1 = 0.7741 | 863.94
333.15 K, x1 = 0.8351 | 854.42
333.15 K, x1 = 0.8812 | 847.31
333.15 K, x1 = 0.9487 | 836.99
333.15 K, x1 = 1 | 829.22
343.15 K, x1 = 0.0547 | 977.18
343.15 K, x1 = 0.1241 | 964.43
343.15 K, x1 = 0.1887 | 952.77
343.15 K, x1 = 0.2654 | 939.18
343.15 K, x1 = 0.3214 | 929.42
343.15 K, x1 = 0.3985 | 916.19
343.15 K, x1 = 0.4658 | 904.84
343.15 K, x1 = 0.5214 | 895.6
343.15 K, x1 = 0.5985 | 882.97
343.15 K, x1 = 0.6541 | 874
343.15 K, x1 = 0.7014 | 866.44
343.15 K, x1 = 0.7654 | 856.33
343.15 K, x1 = 0.8354 | 845.41
343.15 K, x1 = 0.8924 | 836.63
343.15 K, x1 = 0.9469 | 828.32
343.15 K, x1 = 1 | 820.29
353.15 K, x1 = 0.0544 | 968.44
353.15 K, x1 = 0.1214 | 956.1
353.15 K, x1 = 0.1958 | 942.64
353.15 K, x1 = 0.2562 | 931.9
353.15 K, x1 = 0.3214 | 920.5
353.15 K, x1 = 0.3985 | 907.25
353.15 K, x1 = 0.4515 | 898.28
353.15 K, x1 = 0.5114 | 888.28
353.15 K, x1 = 0.5941 | 874.69
353.15 K, x1 = 0.6621 | 863.71
353.15 K, x1 = 0.7214 | 854.26
353.15 K, x1 = 0.7852 | 844.22
353.15 K, x1 = 0.8471 | 834.59
353.15 K, x1 = 0.8915 | 827.76
353.15 K, x1 = 0.9565 | 817.85
353.15 K, x1 = 1 | 811.29
